According to ChEMBL document CHEMBL1201862, “PubChem BioAssay data set” (2004):
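Cultured in 96-well plates, cells were exposed to test compound for 48 hours across five concentrations. At the GI50, growth is halved.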 Calls of active or inactive are those of the source. No stated cut-off is given here; in the data, active = GI50 up to about 1.1 µM and inactive = higher.

Tests used:
Experiment in all cases: growth of human tumour cells (NCI), 48 h
HT-29 = test system: HT-29
CCRF-CEM = test system: CCRF-CEM
XF498 = test system: XF498
TK-10 = test system: TK-10
DMS-273 = test system: DMS-273
HL-60 = test system: HL-60
M14 = test system: M14
SK-MEL-2 = test system: SK-MEL-2
SF-268 = test system: SF-268
RPMI-8226 = test system: RPMI-8226
SR = test system: SR
LOX IMVI = test system: LOX IMVI
786-0 = test system: 786-0
SF-539 = test system: SF-539
DLD-1 = test system: DLD-1
UACC-62 = test system: UACC-62
HOP-62 = test system: HOP-62
NCI-H23 = test system: NCI-H23
RXF 393 = test system: RXF 393
MOLT-4 = test system: MOLT-4
SF-295 = test system: SF-295
M19-MEL = test system: M19-MEL
HCT-116 = test system: HCT-116
IGROV-1 = test system: IGROV-1
NCI-H226 = test system: NCI-H226
SN12C = test system: SN12C
A549 = test system: A549
KM-20L2 = test system: KM-20L2
ACHN = test system: ACHN
RXF 631 = test system: RXF 631
HCT-15 = test system: HCT-15
A498 = test system: A498
SK-MEL-28 = test system: SK-MEL-28
U-251 = test system: U-251
HCC 2998 = test system: HCC 2998
UACC-257 = test system: UACC-257
SK-MEL-5 = test system: SK-MEL-5
LXFL 529 = test system: LXFL 529
OVCAR-4 = test system: OVCAR-4
DMS-114 = test system: DMS-114
SW-620 = test system: SW-620
OVCAR-8 = test system: OVCAR-8
EKVX = test system: EKVX
OVCAR-3 = test system: OVCAR-3
SNB-19 = test system: SNB-19
SNB-75 = test system: SNB-75
NCI-H460 = test system: NCI-H460
Malme-3M = test system: Malme-3M
UO-31 = test system: UO-31
COLO 205 = test system: COLO 205
K562 = test system: K562
HOP-92 = test system: HOP-92
KM12 = test system: KM12
HOP-18 = test system: HOP-18
OVCAR-5 = test system: OVCAR-5
CAKI-1 = test system: CAKI-1
SNB-78 = test system: SNB-78
SK-OV-3 = test system: SK-OV-3
NCI-H522 = test system: NCI-H522

## O=c1cc(-c2ccccc2)[nH]c2c(Cl)cccc12
HT-29
  GI50: 20.8 µM (inactive)
CCRF-CEM
  GI50: 16.1 µM (inactive)
XF498
  GI50: 26.8 µM (inactive)
TK-10
  GI50: > 100 µM (inactive)
DMS-273
  GI50: 7.11 µM (inactive)
HL-60
  GI50: 9.12 µM (inactive)
M14
  GI50: 9.31 µM (inactive)
SK-MEL-2
  GI50: 6.97 µM (inactive)
SF-268
  GI50: 38.4 µM (inactive)
RPMI-8226
  GI50: 17 µM (inactive)
SR
  GI50: 7.53 µM (inactive)
LOX IMVI
  GI50: 9.35 µM (inactive)
786-0
  GI50: 26.3 µM (inactive)
SF-539
  GI50: 15.3 µM (inactive)
DLD-1
  GI50: 20.5 µM (inactive)
UACC-62
  GI50: 4.55 µM (inactive)
HOP-62
  GI50: 7.26 µM (inactive)
NCI-H23
  GI50: 63.2 µM (inactive)
RXF 393
  GI50: 15.7 µM (inactive)
MOLT-4
  GI50: 8.34 µM (inactive)
SF-295
  GI50: 20.1 µM (inactive)
M19-MEL
  GI50: 9.18 µM (inactive)
HCT-116
  GI50: 7.24 µM (inactive)
IGROV-1
  GI50: 4.86 µM (inactive)
NCI-H226
  GI50: 9.55 µM (inactive)
SN12C
  GI50: 46.2 µM (inactive)
A549
  GI50: 7.98 µM (inactive)
KM-20L2
  GI50: 14.4 µM (inactive)
ACHN
  GI50: 78 µM (inactive)
RXF 631
  GI50: 51.9 µM (inactive)
HCT-15
  GI50: 5.09 µM
A498
  GI50: 14.2 µM (inactive)
SK-MEL-28
  GI50: > 100 µM (inactive)
U-251
  GI50: 87.5 µM (inactive)
HCC 2998
  GI50: 14.8 µM (inactive)
UACC-257
  GI50: 78.3 µM (inactive)
SK-MEL-5
  GI50: 5.86 µM (inactive)
LXFL 529
  GI50: 31.5 µM (inactive)
OVCAR-4
  GI50: 18.9 µM (inactive)
DMS-114
  GI50: 7.66 µM (inactive)
SW-620
  GI50: 3.86 µM (inactive)
OVCAR-8
  GI50: 16.6 µM (inactive)
EKVX
  GI50: 49.5 µM (inactive)
OVCAR-3
  GI50: 24.5 µM (inactive)
SNB-19
  GI50: 20.5 µM (inactive)
SNB-75
  GI50: 13.8 µM (inactive)
NCI-H460
  GI50: 8.2 µM (inactive)
Malme-3M
  GI50: 64.9 µM (inactive)
UO-31
  GI50: 34.2 µM (inactive)
COLO 205
  GI50: 29.7 µM (inactive)
K562
  GI50: 2.77 µM (inactive)

## O=C1NCCS(=O)(=O)N2CCC[C@@H]12
HT-29
  GI50: > 100 µM (inactive)
CCRF-CEM
  GI50: > 100 µM (inactive)
TK-10
  GI50: > 100 µM (inactive)
HOP-92
  GI50: > 100 µM (inactive)
HL-60
  GI50: > 100 µM (inactive)
M14
  GI50: > 100 µM (inactive)
SF-268
  GI50: > 100 µM (inactive)
RPMI-8226
  GI50: > 100 µM (inactive)
SR
  GI50: > 100 µM (inactive)
LOX IMVI
  GI50: > 100 µM (inactive)
786-0
  GI50: > 100 µM (inactive)
KM12
  GI50: > 100 µM (inactive)
SF-539
  GI50: > 100 µM (inactive)
DLD-1
  GI50: > 100 µM (inactive)
UACC-62
  GI50: > 100 µM (inactive)
HOP-62
  GI50: > 100 µM (inactive)
NCI-H23
  GI50: > 100 µM (inactive)
RXF 393
  GI50: > 100 µM (inactive)
HOP-18
  GI50: > 100 µM (inactive)
MOLT-4
  GI50: > 100 µM (inactive)
SF-295
  GI50: > 100 µM (inactive)
M19-MEL
  GI50: > 100 µM (inactive)
HCT-116
  GI50: > 100 µM (inactive)
IGROV-1
  GI50: > 100 µM (inactive)
NCI-H226
  GI50: 60.3 µM (inactive)
SN12C
  GI50: > 100 µM (inactive)
A549
  GI50: > 100 µM (inactive)
KM-20L2
  GI50: > 100 µM (inactive)
ACHN
  GI50: > 100 µM (inactive)
RXF 631
  GI50: > 100 µM (inactive)
HCT-15
  GI50: > 100 µM
A498
  GI50: > 100 µM (inactive)
SK-MEL-28
  GI50: > 100 µM (inactive)
OVCAR-5
  GI50: > 100 µM (inactive)
CAKI-1
  GI50: > 100 µM (inactive)
U-251
  GI50: > 100 µM (inactive)
HCC 2998
  GI50: > 100 µM (inactive)
UACC-257
  GI50: > 100 µM (inactive)
SNB-78
  GI50: > 100 µM (inactive)
SK-OV-3
  GI50: > 100 µM (inactive)
NCI-H522
  GI50: > 100 µM (inactive)
SK-MEL-5
  GI50: > 100 µM (inactive)
LXFL 529
  GI50: > 100 µM (inactive)
OVCAR-4
  GI50: > 100 µM (inactive)
DMS-114
  GI50: > 100 µM (inactive)
SW-620
  GI50: > 100 µM (inactive)
OVCAR-8
  GI50: > 100 µM (inactive)
EKVX
  GI50: > 100 µM (inactive)
OVCAR-3
  GI50: > 100 µM (inactive)
SNB-19
  GI50: > 100 µM (inactive)
SNB-75
  GI50: > 100 µM (inactive)
NCI-H460
  GI50: > 100 µM (inactive)
Malme-3M
  GI50: > 100 µM (inactive)
UO-31
  GI50: > 100 µM (inactive)
COLO 205
  GI50: > 100 µM (inactive)
K562
  GI50: > 100 µM (inactive)

## CC1CC2(S(=O)(=O)c3ccccc3)ON1CC2S(=O)(=O)c1ccccc1 (stereo unspecified)
HT-29
  GI50: > 100 µM (inactive)
CCRF-CEM
  GI50: > 100 µM (inactive)
XF498
  GI50: > 100 µM (inactive)
TK-10
  GI50: > 100 µM (inactive)
DMS-273
  GI50: > 100 µM (inactive)
HL-60
  GI50: > 100 µM (inactive)
M14
  GI50: > 100 µM (inactive)
SK-MEL-2
  GI50: > 100 µM (inactive)
SF-268
  GI50: > 100 µM (inactive)
RPMI-8226
  GI50: > 100 µM (inactive)
SR
  GI50: > 100 µM (inactive)
LOX IMVI
  GI50: > 100 µM (inactive)
786-0
  GI50: > 100 µM (inactive)
KM12
  GI50: > 100 µM (inactive)
SF-539
  GI50: 42.3 µM (inactive)
DLD-1
  GI50: > 100 µM (inactive)
UACC-62
  GI50: > 100 µM (inactive)
HOP-62
  GI50: > 100 µM (inactive)
NCI-H23
  GI50: > 100 µM (inactive)
RXF 393
  GI50: > 100 µM (inactive)
MOLT-4
  GI50: > 100 µM (inactive)
SF-295
  GI50: > 100 µM (inactive)
M19-MEL
  GI50: > 100 µM (inactive)
HCT-116
  GI50: > 100 µM (inactive)
IGROV-1
  GI50: > 100 µM (inactive)
NCI-H226
  GI50: > 100 µM (inactive)
SN12C
  GI50: > 100 µM (inactive)
A549
  GI50: > 100 µM (inactive)
KM-20L2
  GI50: > 100 µM (inactive)
ACHN
  GI50: > 100 µM (inactive)
RXF 631
  GI50: > 100 µM (inactive)
HCT-15
  GI50: > 100 µM
SK-MEL-28
  GI50: > 100 µM (inactive)
OVCAR-5
  GI50: > 100 µM (inactive)
CAKI-1
  GI50: > 100 µM (inactive)
U-251
  GI50: > 100 µM (inactive)
HCC 2998
  GI50: > 100 µM (inactive)
UACC-257
  GI50: > 100 µM (inactive)
SK-OV-3
  GI50: > 100 µM (inactive)
NCI-H522
  GI50: 70.8 µM (inactive)
LXFL 529
  GI50: > 100 µM (inactive)
OVCAR-4
  GI50: > 100 µM (inactive)
DMS-114
  GI50: > 100 µM (inactive)
SW-620
  GI50: > 100 µM (inactive)
OVCAR-8
  GI50: > 100 µM (inactive)
EKVX
  GI50: > 100 µM (inactive)
OVCAR-3
  GI50: > 100 µM (inactive)
SNB-19
  GI50: > 100 µM (inactive)
SNB-75
  GI50: > 100 µM (inactive)
NCI-H460
  GI50: > 100 µM (inactive)
Malme-3M
  GI50: > 100 µM (inactive)
UO-31
  GI50: > 100 µM (inactive)
COLO 205
  GI50: > 100 µM (inactive)
K562
  GI50: > 100 µM (inactive)
